# Assay results reported in patent publication US5376645A (University of Kansas, priority 1992, dated 1994).
# Tests used:
# [1] = Plasma urea nitrogen (kidney function); assay type: in vivo; details: mice; 24 hrs; n = 4; normal saline control 15.88 ± 1.21
# Source text: Plasma urea nitrogen levels are an indicator of kidney function with higher levels indicating renal damage. […] There is however no statistical difference between our derivatives and the hydroxypropyl derivative.
# ^(1) SIGMA Urea Nitrogen Procedure No. 640A
# red blood cell = assay: Hemolysis of red blood cells (membrane disruption); assay type: cell-based
# Source text: The mono substituted derivatives caused about the same amount of membrane disruption as the hydroxypropyl derivative.
# [2] = Phase solubility: association constant with digoxin; assay type: physicochemical; details: 1:1 complex
# [3] = Phase solubility: association constant with testosterone; assay type: physicochemical; details: 1:1 complex
# [4] = Phase solubility: association constant with phenytoin; assay type: physicochemical; details: 1:1 complex
# Source text: Similar results can be seen for progesterone (see Table 3 and FIGS. 5 and 6), phenytoin (see Table 4 and FIGS. 7 and 8), and testosterone (see Table 5 and FIGS. 9 and 10).
smiles,measurement,setting,value
"OC[C@H]1O[C@@H]2O[C@H]3[C@H](O)[C@@H](O)[C@@H](O[C@H]4[C@H](O)[C@@H](O)[C@@H](O[C@H]5[C@H](O)[C@@H](O)[C@@H](O[C@H]6[C@H](O)[C@@H](O)[C@@H](O[C@H]7[C@H](O)[C@@H](O)[C@@H](O[C@H]8[C@H](O)[C@@H](O)[C@@H](O[C@H]1[C@H](O)[C@H]2O)O[C@@H]8CO)O[C@@H]7CO)O[C@@H]6CO)O[C@@H]5CO)O[C@@H]4CO)O[C@@H]3CO [β-Cyclodextrin, β-cyclodextrin]","Plasma Urea Nitrogen, PUN + S.D.",[1],160.10 ± 26.16 mg/dL
same,membrane disruption / percent hemolysis (in words),red blood cell,causing the most membrane disruption
same,Digoxin association constant K1:1,[2],28200 M⁻¹
same,Testosterone association constant K1:1,[3],17800 M⁻¹
same,Phenytoin association constant K1:1,[4],1510 M⁻¹
